Measured values reported in US20210255193A1, “LYSINE REACTIVE PROBES AND USES THEREOF” (The Scripps Research Institute, priority 2017, published 2021).
Each block holds one compound with its values, some of them ahead of it.

Columns and labels:
Experiment in all cases: competitive isoTOP-ABPP
[1] = biological target: T1, GABARAPL2 Gamma-aminobutyric acid receptor-associated protei (Homo sapiens, UniProt P60520); format: binding; details: for R value (DMSO/fragment) for probe 1 labeling: P60520_K46; for isoTOP-ABPP ratio, lysine P60520_K46: 50 uM_231_sol_in vitro
T1 construct: isoTOP-ABPP experiments performed in cell lysates (in vitro); endogenous in cells; host or cells: soluble proteome of human cancer cell lines (MDA-MB-231, Ramos, Jurkat)
T1 sequence (P60520 1-116 limits assumed): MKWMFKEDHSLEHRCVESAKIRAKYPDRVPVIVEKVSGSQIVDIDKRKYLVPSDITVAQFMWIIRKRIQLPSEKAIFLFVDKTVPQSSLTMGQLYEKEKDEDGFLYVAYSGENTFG
Procedure, shortened: (§1)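 Here, isoTOP-ABPP measures loss of STP-alkyne labeling at individual lysines after fragment exposure in lysate. Activated esters are dosed at 50 μM, guanidinylating agents at 100 μM; the probe follows at 0.1 mM for 1 h. R ≥4 marks a liganded lysine.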

[2] = biological target: T2, NUDT2 Bis(5-nucleosyl)-tetraphosphatase (Homo sapiens, UniProt P50583); format: binding; design: key to isoTOP-ABPP reactivity ratio at lysine P50583_K89: R = MS1 peak area ratio, DMSO (heavy) / compound-treated (light); details: for R value (DMSO/fragment) for probe 1 labeling: P50583_K89; for isoTOP-ABPP ratio, lysine P50583_K89: 50 uM_231_sol_in vitro, possible other lysine P50583_K87
T2 construct: isoTOP-ABPP experiments performed in cell lysates (in vitro); endogenous in cells
T2 sequence (P50583 whole entry, the tested form may be a part): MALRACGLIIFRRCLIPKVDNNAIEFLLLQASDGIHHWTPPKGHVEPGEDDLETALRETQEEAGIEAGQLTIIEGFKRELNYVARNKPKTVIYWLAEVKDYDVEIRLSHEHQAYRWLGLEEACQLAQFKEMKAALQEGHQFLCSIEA
Description: (§2) In vitro covalent fragment treatment for isoTOP-ABPP. All compounds were made up as solutions in DMSO (100×) and were used at a final concentration of 50 μM for activated esters and 100 μM for guanidinylating agents. For each profiling sample, 0.5 ml of lysate was treated with 5 μl of the 100× compound stock solution or 5 μl of DMSO. Samples were treated with activated esters for
(§3) STP-alkyne labeling and click chemistry. For concentration-dependent reactivity measurements by isoTOP-ABPP, 0.5 ml proteome aliquots were treated at ambient temperature with 1 mM STP-alkyne 1 (5 μl of 100 mM stock in DMSO) and 0.1 mM STP alkyne 1 (5 μl of 10 mM stock in DMSO), respectively. For competitive isoTOP-ABPP, after in vitro fragment treatment (detailed above), the samples were labeled for 1 h at ambient temperature with 0.1 mM STP-alkyne 1 (5 μl of 10 mM stock in DMSO). Samples were conjugated by copper-mediated azide-alkyne cycloaddition (CuAAC) to either the light (1 mM STP-alkyne or fragment treated) or heavy (0.1 mM STP-alkyne or DMSO treated) TEV tags (10 μl of 5 mM stocks in DMSO, final concentration=100 μM) using tris(2-carboxyethyl)phosphine hydrochloride
(§4) R value calculation and processing. The ratios of light and heavy MS1 peaks for each unique peptide were quantified with a CIMAGE software using default parameters (3 MS1 acquisitions per peak and signal to noise threshold set to 2.5). For reactivity measurements by isoTOP-ABPP, the R value was calculated from the ratio of MS1 peak areas, comparing the 1 mM STP alkyne sample (light TEV tag) with the 0.1 mM STP alkyne sample (heavy TEV tag). For competitive isoTOP-ABPP, the R value was calculated from the ratio of MS1 peak areas, comparing the DMSO treated sample (heavy TEV tag) with the compound treated sample (light TEV tag). […] Ratios for unique peptide entries are calculated for each experiment; overlapping peptides with the same modified lysine (for example, different charge states, MudPIT chromatographic steps or tryptic termini) are grouped together and the median ratio is reported as the final ratio (R). The peptide ratios reported by CIMAGE were further filtered to ensure the removal or correction of low-quality ratios in each individual data set. The quality filters applied were the following: removal of half tryptic peptides; for ratios with high standard deviations from the median (90% of the median or above) the lowest ratio was taken instead of the median; removal of peptides with R=20 and only a single MS2 event triggered during the elution of the parent ion; manual annotation of all the peptides with ratios of 20, removing any peptides with low quality elution profiles that remained after the previous curation steps (only done for competitive isoTOP-ABPP).
(§5) Cross-data processing for fragment screening. For compound treated samples, biological replicates of the same condition were averaged, if the standard deviation was below 60% of the mean; otherwise, for lysines with at least one R value <4 for a particular compound, the lowest value of the ratio set was taken. For lysines, where all R values for a particular compound were ≥4, the average was reported. For peptides containing several possible modified lysines, the lysine with the highest number of quantification events was used for analysis and the remaining, redundant peptides were reported as alternative modification sites. Peptides included in the aggregate dataset (those used for further bioinformatics and statistical analyses) were required to have been quantified in 2 experiments for competitive isoTOP-ABPP. Lysines were categorized as liganded, if they had at least one ratio R≥4 (hit fragments). For liganded lysines with R=20 for all liganding events, lysines were required to have been quantified with R=20 in two separate experiments and were further required to have been quantified with R<20 in one additional experiment.

[3] = biological target: T3, SRP54 Signal recognition particle 54 kDa protein (Homo sapiens, UniProt P61011); format: binding; design: key to isoTOP-ABPP reactivity ratio at lysine P61011_K81: R = MS1 peak area ratio, DMSO (heavy) / compound-treated (light); capped at 20; details: for R value (DMSO/fragment) for probe 1 labeling: P61011_K81; for isoTOP-ABPP ratio, lysine P61011_K81: 50 uM_231_sol_in vitro
T3 construct: isoTOP-ABPP experiments performed in cell lysates (in vitro); endogenous in cells; host or cells: soluble proteome of human cancer cell lines (MDA-MB-231, Ramos, Jurkat)
T3 sequence (P61011 whole entry, the tested form may be a part): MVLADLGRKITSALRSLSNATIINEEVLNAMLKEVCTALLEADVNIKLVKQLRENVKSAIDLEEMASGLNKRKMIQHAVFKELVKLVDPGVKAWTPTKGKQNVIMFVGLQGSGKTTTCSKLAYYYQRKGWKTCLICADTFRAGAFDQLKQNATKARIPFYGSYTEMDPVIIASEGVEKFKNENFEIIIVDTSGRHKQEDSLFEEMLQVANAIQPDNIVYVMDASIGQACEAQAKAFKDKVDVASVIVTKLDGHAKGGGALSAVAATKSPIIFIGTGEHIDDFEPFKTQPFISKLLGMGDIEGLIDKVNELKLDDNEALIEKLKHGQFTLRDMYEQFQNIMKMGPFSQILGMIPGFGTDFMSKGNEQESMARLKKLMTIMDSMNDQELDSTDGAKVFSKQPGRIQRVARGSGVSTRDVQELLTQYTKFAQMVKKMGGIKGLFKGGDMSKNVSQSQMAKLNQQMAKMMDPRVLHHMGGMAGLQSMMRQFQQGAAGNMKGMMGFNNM
Description: as §2, §3, §4, §5

[4] = biological target: T4, NONO Non-POU domain-containing octamer-binding protein (Homo sapiens, UniProt Q15233); details: 50 uM, in vitro
T4 construct: isoTOP-ABPP experiments performed in cell lysates (in vitro); endogenous in cells; host or cells: soluble proteome of human cancer cell lines (MDA-MB-231; Ramos and Jurkat also prepared)
T4 sequence (Q15233 1-471): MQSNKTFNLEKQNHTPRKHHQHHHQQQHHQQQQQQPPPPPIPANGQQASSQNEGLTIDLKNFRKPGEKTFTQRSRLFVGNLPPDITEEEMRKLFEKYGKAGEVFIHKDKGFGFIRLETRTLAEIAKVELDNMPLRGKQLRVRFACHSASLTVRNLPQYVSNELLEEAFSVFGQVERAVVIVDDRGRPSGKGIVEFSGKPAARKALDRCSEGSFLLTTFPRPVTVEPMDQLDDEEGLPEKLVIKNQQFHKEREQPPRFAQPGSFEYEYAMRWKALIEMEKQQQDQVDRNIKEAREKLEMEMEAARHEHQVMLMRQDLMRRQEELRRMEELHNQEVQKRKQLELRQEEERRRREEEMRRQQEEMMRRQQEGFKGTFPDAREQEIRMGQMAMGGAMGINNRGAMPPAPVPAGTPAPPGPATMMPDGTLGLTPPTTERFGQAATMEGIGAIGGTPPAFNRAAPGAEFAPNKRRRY
Procedure, shortened: as §1

[5] = biological target: T5, ECH1 Delta(3,5)-Delta(2,4)-dienoyl-CoA isomerase, mitochondrial (Homo sapiens, UniProt Q13011); format: binding; design: key to isoTOP-ABPP reactivity ratio at lysine Q13011_K112: R = MS1 peak area ratio, DMSO (heavy) / compound-treated (light); capped at 20; details: for R value (DMSO/fragment) for probe 1 labeling: Q13011_K112; for isoTOP-ABPP ratio, lysine Q13011_K112: 50 uM_231_sol_in vitro
T5 construct: isoTOP-ABPP experiments performed in cell lysates (in vitro); endogenous in cells; host or cells: soluble proteome of human cancer cell lines (MDA-MB-231, Ramos, Jurkat)
T5 sequence (Q13011 34-328): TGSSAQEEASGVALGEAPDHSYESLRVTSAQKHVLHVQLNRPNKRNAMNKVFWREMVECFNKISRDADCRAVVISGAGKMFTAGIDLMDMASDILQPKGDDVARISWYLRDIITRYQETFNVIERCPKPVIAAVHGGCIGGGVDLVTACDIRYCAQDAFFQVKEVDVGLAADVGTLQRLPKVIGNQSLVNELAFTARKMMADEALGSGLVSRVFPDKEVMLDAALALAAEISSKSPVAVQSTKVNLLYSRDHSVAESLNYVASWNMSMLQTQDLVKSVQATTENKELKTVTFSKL
Description: as §2, §3, §4, §5

SMILES: O=C(Oc1ccc([N+](=O)[O-])cc1[N+](=O)[O-])C(c1ccccc1)(c1ccccc1)c1ccccc1 [fragment 42, 2,4-Dinitrophenyl 2,2,2-triphenylacetate]
- isoTOP-ABPP ratio (R) at liganded lysine P60520_K46 ([1]; 50 uM, in vitro, sol, 231): 0.9
- isoTOP-ABPP ratio (R) at liganded lysine P50583_K89 ([2]; 50 uM, in vitro, sol, 231): 1.0
- isoTOP-ABPP ratio (R) at liganded lysine P61011_K81 ([3]; 50 uM, in vitro, sol, 231): 0.9
- isoTOP-ABPP ratio (R) at liganded lysine Q15233_K467 ([4]; sol, 231): 2.5
- isoTOP-ABPP ratio (R) at liganded lysine Q13011_K112 ([5]; 50 uM, in vitro, sol, 231): 1.0

- R value (DMSO/fragment) for probe 1 labeling ([1]; 50 uM, 231 sol, in vitro): 0.8
- R value (DMSO/fragment) for probe 1 labeling ([2]; 50 uM, 231 sol, in vitro): 0.9
- R value (DMSO/fragment) for probe 1 labeling ([3]; 50 uM, 231 sol, in vitro): 0.7
- R value (DMSO/fragment) for probe 1 labeling ([4]; Q15233_K467, 231 sol): 1.5
- R value (DMSO/fragment) for probe 1 labeling ([5]; 50 uM, 231 sol, in vitro): 1.5
SMILES: O=C(Oc1c(F)c(F)c(F)c(F)c1F)c1cc(C(F)(F)F)cc(C(F)(F)F)c1 [fragment 21, Pentafluorophenyl 3,5-bis(trifluoromethyl)benzoate]

- isoTOP-ABPP ratio, lysine P60520_K46 [1]: 1.0
- isoTOP-ABPP ratio, lysine P50583_K89 [2]: 1.0
- isoTOP-ABPP ratio, lysine P61011_K81 [3]: 0.9
- isoTOP-ABPP ratio, lysine Q13011_K112 [5]: 1.0
SMILES: O=C(Oc1c(F)c(F)c(C(F)(F)F)c(F)c1F)c1cc(C(F)(F)F)cc(C(F)(F)F)c1 [fragment 47, 2,3,5,6-Tetrafluoro-4-(trifluoromethyl)phenyl 3,5-bis(trifluoromethyl)benzoate]

SMILES: O=C(CCc1cn(-c2ccccc2)nc1-c1ccccc1)Oc1ccc([N+](=O)[O-])cc1[N+](=O)[O-] [fragment 29, 2,4-Dinitrophenyl 3-(1,3-diphenyl-1H-pyrazol-4-yl)propanoate]
- isoTOP-ABPP reactivity ratio at lysine P60520_K46 ([1]; 50 uM, 231 sol, in vitro): 0.9
- isoTOP-ABPP reactivity ratio at lysine P50583_K89 ([2]; 50 uM, 231 sol, in vitro): 1.0
- isoTOP-ABPP reactivity ratio at lysine P61011_K81 ([3]; 50 uM, 231 sol, in vitro): 1.1
- isoTOP-ABPP reactivity ratio at lysine Q13011_K112 ([5]; 50 uM, 231 sol, in vitro): 1.0

- isoTOP-ABPP ratio, lysine P60520_K46 [1]: 1.0
- isoTOP-ABPP ratio, lysine P50583_K89 [2]: 0.9
- isoTOP-ABPP ratio, lysine P61011_K81 [3]: 0.7
- isoTOP-ABPP ratio, lysine Q13011_K112 [5]: 1.0
SMILES: NC(=O)c1cc(C(F)(F)F)cc(C(F)(F)F)c1 [fragment 51, reference compound]

SMILES: O=C(CCc1ccc2c(c1)OCO2)Oc1ccc([N+](=O)[O-])cc1[N+](=O)[O-] [fragment 45, 2,4-Dinitrophenyl 3-(benzo[d][1,3]dioxol-5-yl)propanoate]
- isoTOP-ABPP ratio, lysine P60520_K46 [1]: 1.0
- isoTOP-ABPP ratio, lysine P50583_K89 [2]: 1.7
- isoTOP-ABPP ratio, lysine P61011_K81 [3]: 1.0
- isoTOP-ABPP ratio, lysine Q13011_K112 [5]: 1.0

- R value (DMSO/fragment) for probe 1 labeling ([1]; 50 uM, 231 sol, in vitro): 0.8
- R value (DMSO/fragment) for probe 1 labeling ([2]; 50 uM, 231 sol, in vitro): 0.9
- R value (DMSO/fragment) for probe 1 labeling ([3]; 50 uM, 231 sol, in vitro): 0.9
- R value (DMSO/fragment) for probe 1 labeling ([5]; 50 uM, 231 sol, in vitro): 1.5
SMILES: Cn1cc(CC(=O)Oc2c(F)c(F)c(F)c(F)c2F)c2ccccc21 [fragment 22, Pentafluorophenyl 2-(1-methyl-1H-indol-3-yl)acetate]
